Measured values taken from patent US6803378B2, “HIV integrase inhibitors” (Bristol-Myers Squibb Company, priority 2000, dated 2004).

Legend:
HIV Integrase [1] = molecular target: T1, HIV Integrase (Human immunodeficiency virus type 1 group M subtype B, UniProt P04585); assay: In vitro activity against integrase, Method C (electroluminescence, ECL assay); type: biochemical; conditions: read-out: Percent inhibition of HIV Integrase at 70 uM
T1 construct: 0.26 ng of recombinant integrase was then incubated with the beads
Method: (§1) The in vitro activities, against integrase, of compounds of the present invention were measured by one of the following three methods.
(§2) In Method B, the in vitro activity against integrase was measured by binding, for each reaction, 5 pmole of biotin labeled substrate DNA to 100 ug of Streptavidin coated PVT SPA beads (Amersham Pharmacia Biotech). 0.26 ng of recombinant integrase was then incubated with the beads for 90 min at 37° C. Unbound enzyme was removed by washing the complex followed by addition of inhibitors and 0.1 fmol of P33 labeled target DNA. Reaction was stopped by adding EDTA to a final concentration of 10 mM. Samples were counted in TopCountNXT (Packard) and the CPM was used as a measure of integration. Reaction condition was as described in A. Engelman and R. Craigie, J. Virol. 69, 5908-5911 (1995). The sequences of substrate and target DNA were described in Nucleic Acid Research 22, 1121-1122 (1994).
Method C (Electroluminesence Assay):
The ECL assay of Method C is essentially the same as the SPA assay of Method B, except that 0.5 μg of Streptavidin coated magnetic beads and 0.5 pmol Ru labeled target DNA were used for each reaction instead of SPA beads and P33 labeled DNA. The samples were read in a M8 analyzer (IGEN International, Inc).

HIV Integrase [2] = molecular target: T1, HIV Integrase; assay: In vitro activity against integrase, Method B (SPA assay); type: biochemical; conditions: read-out: Percent inhibition of HIV Integrase at 70 uM
Method: as §1, §2

Compound | inhibition at 70 µM (HIV Integrase [1]) [%] | inhibition at 70 µM (HIV Integrase [2]) [%]
O=C(O)/C(O)=C/C(=O)N(CCOc1ccccc1)Cc1ccc(F)cc1 [Compound 49, 3-[(4-Fluoro-benzyl)-(2-phenoxy-ethyl)-carbamoyl]-2-hydroxy-acrylic acid] | 99 | –
CN(Cc1ccccc1Cc1ccccc1)C(=O)/C=C(\O)C(=O)O [Compound 84, 3-[(2-Benzyl-benzyl)-methyl-carbamoyl]-2-hydroxy-acrylic acid] | – | 88
O=C(O)/C(O)=C/C(=O)N(Cc1ccc(F)cc1)Cc1ccc2ccccc2c1 [Compound 53, 3-[(4-Fluoro-benzyl)-naphthalen-2-ylmethyl-carbamoyl]-2-hydroxy-acrylic acid] | – | 99
CN(CCC(c1ccc(F)cc1)c1ccc(F)cc1)C(=O)/C=C(\O)C(=O)O [Compound 80, 3-{[3,3-Bis-(4-fluoro-phenyl)-propyl]-methyl-carbamoyl}-2-hydroxy-acrylic acid] | – | 90
COc1ccc(CN(Cc2ccc(F)cc2)C(=O)/C=C(\O)C(=O)O)cc1Cl [Compound 76, 3-[(3-Chloro-4-methoxy-benzyl)-(4-fluoro-benzyl)-carbamoyl]-2-hydroxy-acrylic acid] | – | 99
CN(Cc1cccc(Cl)c1)C(=O)/C=C(\O)C(=O)O [Compound 62, 3-[(3-Chloro-benzyl)-methyl-carbamoyl]-2-hydroxy-acrylic acid] | – | 99
CN(C(=O)/C=C(\O)C(=O)O)C(Cc1ccc(F)cc1)c1ccc(F)cc1 (stereo not drawn) [Compound 78, 3-{[1,2-Bis-(4-fluoro-phenyl)-ethyl]-methyl-carbamoyl}-2-hydroxy-acrylic acid] | 75 | –
CN(Cc1ccc(Cl)cc1)C(=O)/C=C(\O)C(=O)O [Compound 45, 3-[(4-Chloro-benzyl)-methyl-carbamoyl]-2-hydroxy-acrylic acid] | 99 | –
O=C(O)/C(O)=C/C(=O)N(Cc1ccccc1)Cc1ccccc1 [Compound 14, 3-Dibenzylcarbamoyl-2-hydroxy-acrylic acid] | – | 94.5
COc1cc(CN(C)C(=O)/C=C(\O)C(=O)O)ccc1F [Compound 60, 3-[(4-Fluoro-3-methoxy-benzyl)-methyl-carbamoyl]-2-hydroxy-acrylic acid] | – | 99
CN(Cc1ccc(F)c(Cl)c1)C(=O)/C=C(\O)C(=O)O [Compound 58, 3-[(3-Chloro-4-fluoro-benzyl)-methyl-carbamoyl]-2-hydroxy-acrylic acid] | – | 99
Cc1ccc(CNC(=O)/C=C(\O)C(=O)O)cc1F [Compound 91, 3-(3-Fluoro-4-methyl-benzylcarbamoyl)-2-hydroxy-acrylic acid] | – | 99
O=C(O)/C(O)=C/C(=O)N(Cc1ccc2ccccc2c1)c1ccc(Cl)cc1 [Compound 55, 3-[(4-Chloro-phenyl)-naphthalen-2-ylmethyl-carbamoyl]-2-hydroxy-acrylic acid] | – | 99
CN(Cc1ccc2ccccc2c1)C(=O)/C=C(\O)C(=O)O [Compound 54, 2-Hydroxy-3-(methyl-naphthalen-2-ylmethyl-carbamoyl)-acrylic acid] | – | 99
CN(Cc1ccccc1Cc1ccc(F)cc1)C(=O)/C=C(\O)C(=O)O [Compound 81, 3-{[2-(4-Fluoro-benzyl)-benzyl]-methyl-carbamoyl}-2-hydroxy-acrylic acid] | – | 95
O=C(CCCCCNC(=O)/C(O)=C/C(=O)N(CCCc1ccccc1Cl)Cc1ccc(F)cc1)NS(=O)(=O)c1ccccc1 [Compound 147, 2-Hydroxy-but-2-enedioic acid 1-[(6-benzenesulfonylamino-6-oxo-hexyl)-amide] 4-[[3-(2-chloro-phenyl)-propyl]-(4-fluoro-benzyl)-amide]] | 98 | –
CCCNC(=O)/C(O)=C/C(=O)N(Cc1ccc(F)cc1)Cc1ccc(F)cc1 [Compound 144, 2-Hydroxy-but-2-enedioic acid 4-[bis-(4-fluoro-benzyl)-amide] 1-propylamide] | 83 | –
Cc1ccc(CN(C(=O)/C=C(\O)C(=O)O)c2ccc(F)cc2)cc1 [Compound 73, 3-[(4-Fluoro-phenyl)-(4-methyl-benzyl)-carbamoyl]-2-hydroxy-acrylic acid] | – | 99
CN(Cc1cccc(-c2ccc(F)cc2)c1)C(=O)/C=C(\O)C(=O)O [Compound 63, 3-[(4′-Fluoro-biphenyl-3-ylmethyl)-methyl-carbamoyl]-2-hydroxy-acrylic acid] | – | 98
O=C(O)/C(O)=C/C(=O)N(Cc1ccc(F)cc1)c1ccc(F)cc1 [Compound 72, 3-[(4-Fluoro-benzyl)-(4-fluoro-phenyl)-carbamoyl]-2-hydroxy-acrylic acid] | – | 99

Compound | inhibition at 70 µM (HIV Integrase [1]) [%] | inhibition at 70 µM (HIV Integrase [2]) [%]
CN(Cc1ccco1)C(=O)/C=C(\O)C(=O)O [Compound 75, 3-(Furan-2-ylmethyl-methyl-carbamoyl)-2-hydroxy-acrylic acid] | 91 | –
Cc1cc(CN(C)C(=O)/C=C(\O)C(=O)O)ccc1F [Compound 61, 3-[(4-Fluoro-3-methyl-benzyl)-methyl-carbamoyl]-2-hydroxy-acrylic acid] | – | 99
O=C(O)/C(O)=C/C(=O)N(Cc1ccc(Cl)cc1)Cc1ccc(Cl)cc1 [Compound 57, 3-[Bis-(4-chloro-benzyl)-carbamoyl]-2-hydroxy-acrylic acid] | – | 99
O=C(O)/C(O)=C/C(=O)N(Cc1ccc(F)cc1)CC1CC1c1ccccc1 (stereo not drawn) [Compound 52, 3-[(4-Fluoro-benzyl)-(2-phenyl-cyclopropylmethyl)-carbamoyl]-2-hydroxy-acrylic acid] | 99 | –
CN(Cc1ccc(F)c(F)c1)C(=O)/C=C(\O)C(=O)O [Compound 59, 3-[(3,4-Difluoro-benzyl)-methyl-carbamoyl]-2-hydroxy-acrylic acid] | – | 98
O=C(CCCCCNC(=O)/C(O)=C/C(=O)N(Cc1ccc(F)cc1)Cc1ccc(F)cc1)NS(=O)(=O)c1ccccc1 [Compound 146, 2-Hydroxy-but-2-enedioic acid 1-[(6-benzenesulfonylamino-6-oxo-hexyl)-amide] 4-[bis-(4-fluoro-benzyl)-amide]] | – | 98
O=C(O)/C(O)=C/C(=O)N(CCOc1ccc(F)cc1)Cc1ccc(F)cc1 [Compound 47, 3-{(4-Fluoro-benzyl)-[2-(4-fluoro-phenoxy)-ethyl]-carbamoyl}-2-hydroxy-acrylic acid] | 99 | –
O=C(/C=C(\O)C(=O)O)NC(c1ccc(Cl)cc1)c1ccc(Cl)cc1 [Compound 92, 3-{[Bis-(4-chloro-phenyl)-methyl]-carbamoyl}-2-hydroxy-acrylic acid] | – | 94
CNC(=O)c1cccc(C(c2ccc(F)cc2)N(C)C(=O)/C=C(\O)C(=O)O)c1 (stereo not drawn) [Compound 79, 3-{[(4-Fluoro-phenyl)-(3-methylcarbamoyl-phenyl)-methyl]-methyl-carbamoyl}-2-hydroxy-acrylic acid] | 90 | –
O=C(O)/C(O)=C/C(=O)N(CCCc1ccccc1Cl)Cc1ccc(F)cc1 [Compound 87, 3-[[3-(2-Chloro-phenyl)-propyl]-(4-fluoro-benzyl)-carbamoyl]-2-hydroxy-acrylic acid] | 99 | –
CC(C)N(CCCc1ccccc1)C(=O)/C=C(\O)C(=O)O [Compound 44, 2-Hydroxy-3-[isopropyl-(3-phenyl-propyl)-carbamoyl]-acrylic acid] | 95.5 | –
CN(Cc1cccc(Oc2ccccc2)c1)C(=O)/C=C(\O)C(=O)O [Compound 64, 2-Hydroxy-3-[methyl-(3-phenoxy-benzyl)-carbamoyl]-acrylic acid] | – | 95
O=C(O)/C(O)=C/C(=O)N(Cc1ccc(F)cc1)c1ccc(Cl)cc1 [Compound 70, 3-[(4-Chloro-phenyl)-(4-fluoro-benzyl)-carbamoyl]-2-hydroxy-acrylic acid] | – | 92
CN(Cc1ccc(F)c(Br)c1)C(=O)C=C(O)C(=O)O [Compound 48, 3-[(3-Bromo-4-fluoro-benzyl)-methyl-carbamoyl]-2-hydroxy-acrylic acid] | 99 | –
CC(c1ccc(F)cc1)N(C)C(=O)/C=C(\O)C(=O)O (stereo not drawn) [Compound 50, 3-{[1-(4-Fluoro-phenyl)-ethyl]-methyl-carbamoyl}-2-hydroxy-acrylic acid] | 99 | –
Cc1ccc(CN(C(=O)/C=C(\O)C(=O)O)c2ccc(Cl)cc2)cc1 [Compound 71, 3-[(4-Chloro-phenyl)-(4-methyl-benzyl)-carbamoyl]-2-hydroxy-acrylic acid] | – | 99
O=C(O)/C(O)=C/C(=O)N(Cc1ccc(F)cc1)Cc1ccco1 [Compound 74, 3-[(4-Fluoro-benzyl)-furan-2-ylmethyl-carbamoyl]-2-hydroxy-acrylic acid] | – | 98
CN(Cc1ccc(F)cc1)C(=O)/C=C(\O)C(=O)O [Compound 16, 3-[(4-Fluoro-benzyl)-methyl-carbamoyl]-2-hydroxy-acrylic acid] | – | 97
O=C(O)/C(O)=C/C(=O)N(CCCc1ccccc1)c1ccc(Cl)cc1 [Compound 56, 3-[(4-Chloro-phenyl)-(3-phenyl-propyl)-carbamoyl]-2-hydroxy-acrylic acid] | – | 88
